Laboratory results taken from patent US20040266823A1 (priority 2001, published 2004).
Structures can show the parent of a compound that is named as a salt.

biological target: recombinant human CCR5 receptor (Homo sapiens, UniProt P51681); assay: MIP-1α radioligand binding assay (scintillation proximity); settings: displacement of 0.1 nM iodinated MIP-1α; membranes from Chinese hamster ovary cells; average if tested more than once
Procedure: The ability of compounds to inhibit the binding of MIP-1α was assessed by an in vitro radioligand binding assay. Membranes were prepared from Chinese hamster ovary cells which expressed the recombinant human CCR5 receptor. These membranes were incubated with 0.1 nM iodinated MIP-1α, scintillation proximity beads and various concentrations of the compounds of the invention in 96 well plates. The amount of iodinated MIP-1α bound to the receptor was determined by scintillation counting. Competition curves were obtained for compounds and the concentration of compound which displaced 50% of bound iodinated MIP-1α was calculated (IC50).
In Table II the results are presented as Pic50 values. A Pic50 value is the negative log (to base 10) of the IC50 result, so an IC50 of 1 μM (that is 1×10^−6M) gives a Pic50 of 6. If a compounds was tested more than once then the data below is an average of the probative tests results.

Sequence of recombinant human CCR5 receptor (P51681 whole entry): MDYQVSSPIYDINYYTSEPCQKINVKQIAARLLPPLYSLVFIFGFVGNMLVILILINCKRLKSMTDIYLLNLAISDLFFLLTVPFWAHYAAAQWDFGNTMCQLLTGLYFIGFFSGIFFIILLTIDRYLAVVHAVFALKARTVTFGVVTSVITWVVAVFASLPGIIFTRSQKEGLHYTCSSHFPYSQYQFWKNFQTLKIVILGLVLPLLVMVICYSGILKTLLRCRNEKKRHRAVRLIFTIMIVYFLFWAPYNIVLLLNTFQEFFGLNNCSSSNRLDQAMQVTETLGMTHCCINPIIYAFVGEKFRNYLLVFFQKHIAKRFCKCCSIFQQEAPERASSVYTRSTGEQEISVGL

SMILES | IC50 | Pic50
CCN(C(=O)Cc1ccc(S(C)(=O)=O)cc1)C1CCN(CC[C@H](NC(=O)CC(C)(C)C)c2cccc(F)c2)CC1 [Compound No. 106, (S)-N-{1-[3-(3,3-dimethylbutyrylamino)-3-(3-fluorophenyl)propyl]piperidin-4-yl}-N-ethyl-2-(4-methanesulfonyl-phenyl)acetamide] | 0.562 nM | 
CCN(C(=O)Cc1ccc(S(C)(=O)=O)cc1)C1CCN(CC[C@H](NC(=O)c2ccc(S(C)(=O)=O)s2)c2ccccc2)CC1 [compound 79] | 28.2 nM | 
CCN(C(=O)Cc1ccc(S(C)(=O)=O)cc1)C1CCN(CC[C@H](NC(=O)c2cccc(C#N)c2)c2ccccc2)CC1 [Compound No. 93, (S)-N-[1-(3-phenyl-3-[3-cyanobenzoylamino]propyl)-4-piperidinyl]-N-ethyl-4-methanesulfonylphenylacetamide] | 16.2 nM | 
CCN(C(=O)Cc1ccc(S(C)(=O)=O)cc1)C1CCN(CC[C@H](NC(=O)c2ccc(NS(C)(=O)=O)cc2)c2ccccc2)CC1 [compound 101] | 4.68 nM | 
CCN(C(=O)Cc1ccc(S(C)(=O)=O)cc1)C1CCN(CC[C@H](NC(=O)c2cccc(S(C)(=O)=O)c2)c2ccccc2)CC1 [compound 98] | 14.5 nM | 
CCN(C(=O)Cc1ccc(S(C)(=O)=O)cc1)C1CCN(CC[C@H](NC(=O)N2CCS(=O)(=O)CC2)c2ccccc2)CC1 [Compound No. 91, (S)-N-[1-(3-phenyl-3-[1,1-dioxothiomorpholin-4-ylcarboxyamino]propyl)-4-piperidinyl]-N-ethyl-4-methanesulfonylphenylacetamide] |  | 7.52
CCN(C(=O)Cc1ccc(S(C)(=O)=O)cc1)C1CCN(CC[C@H](NC(=O)c2ccc(NC(C)=O)cc2)c2ccccc2)CC1 [compound 97] | 26.9 nM | 
CCN(C(=O)Cc1ccc(S(C)(=O)=O)cc1)C1CCN(CC[C@H](NC(=O)c2cccc(F)c2)c2cccc(F)c2)CC1 [Compound No. 104, (S)-N-{1-[3-(3-fluorobenzoylamino)-3-(3-fluorophenyl)propyl]piperidin-4-yl}-N-ethyl-2-(4-methanesulfonyl-phenyl)acetamide] | 0.447 nM | 
CCN(C(=O)Cc1ccc(S(C)(=O)=O)cc1)C1CCN(CC[C@H](NC(=O)c2ccc(C(F)(F)F)cc2)c2ccccc2)CC1 [compound 102] | 9.55 nM | 
CCN(C(=O)Cc1ccc(S(C)(=O)=O)cc1)C1CCN(CC[C@H](NC(=O)c2ccc(NC(C)=O)nc2)c2ccccc2)CC1 [compound 68] | 66.1 nM | 
CCN(C(=O)Cc1ccc(S(C)(=O)=O)cc1)C1CCN(C(C)C[C@H](NC(=O)C2CCOCC2)c2ccccc2)CC1 (stereo partly drawn) [Compound No. 95, (3′S)-N-[1-(1-methyl-3-phenyl-3-[tetrahydropyran-4-yl-carboxyamino]propyl)-4-piperidinyl]-N-ethyl-4-methanesulfonylphenylacetamide] | 0.191 nM | 
CCN(C(=O)Cc1ccc(S(C)(=O)=O)cc1)C1CCN(CC[C@H](NC(=O)CC(F)(F)F)c2cccc(F)c2)CC1 [Compound No. 108, (S)-N-{1-[3-(3,3,3-trifluoropropionylamino)-3-(3-fluorophenyl)propyl]piperidinyl}-N-ethyl-2-(4-methanesulfonyl-phenyl)acetamide] |  | 8.02
CCN(C(=O)Cc1ccc(S(C)(=O)=O)cc1)C1CCN(CC[C@H](NC(=O)C2CCOCC2)c2cccc(F)c2)CC1 [compound 105] | 2.88 nM | 
CCN(C(=O)Cc1ccc(S(C)(=O)=O)cc1)C1CCN(CC[C@H](NC(=O)c2ccc(C#N)cc2)c2ccccc2)CC1 [compound 94] | 27.5 nM | 
CCN(C(=O)Cc1ccc(S(C)(=O)=O)cc1)C1CCN(CC[C@H](NC(=O)c2ccc(S(C)(=O)=O)cc2)c2ccccc2)CC1 [compound 99] | 40.7 nM | 
CCN(C(=O)Cc1ccc(S(C)(=O)=O)cc1)C1CCN(CC[C@H](NC(=O)N2CCCCC2)c2cccc(F)c2)CC1 [compound 107] | 0.933 nM | 
CCN(C(=O)Cc1ccc(S(C)(=O)=O)cc1)C1CCN(CC[C@H](NC(=O)c2ccc(S(=O)(=O)NC)cc2)c2ccccc2)CC1 [compound 100] | 23.4 nM | 
CCN(C(=O)Cc1ccc(S(C)(=O)=O)cc1)C1CCN(CC[C@H](NC(=O)c2cnccc2C(F)(F)F)c2ccccc2)CC1.Cl |  | 7.32

Next, values leading:

IC50 | Pic50 | SMILES
245 nM |  | CCN(C(=O)Cc1ccc(S(C)(=O)=O)cc1)C1CCN(CC[C@H](NC(=O)c2cnc[nH]2)c2ccccc2)CC1 [compound 90]
 | 9.27 | CCN(C(=O)Cc1ccc(S(C)(=O)=O)cc1)C1CCN(CC[C@H](NC(=O)C2CCSCC2)c2ccccc2)CC1 [Compound No. 109, (S)-N-[1-(3-phenyl-3-[tetrahydrothiopyran-4-yl-carboxyamino]propyl)-4-piperidinyl]-N-ethyl-4-methanesulfonylphenylacetamide]
20 nM |  | CCN(C(=O)Cc1ccc(S(C)(=O)=O)cc1)C1CCN(CC[C@H](NC(=O)c2cc(F)cc(F)c2)c2ccccc2)CC1 [compound 82]
14.1 nM |  | CCN(C(=O)Cc1ccc(S(C)(=O)=O)cc1)C1CCN(CC[C@H](NC(=O)c2ccoc2)c2ccccc2)CC1 [compound 52]
91.2 nM |  | CCN(C(=O)Cc1ccc(S(C)(=O)=O)cc1)C1CCN(CC[C@H](NC(=O)c2csnn2)c2ccccc2)CC1 [compound 63]
57.5 nM |  | CCN(C(=O)Cc1ccc(S(C)(=O)=O)cc1)C1CCN(CC[C@H](NC(=O)c2ccc(=O)[nH]c2)c2ccccc2)CC1 [compound 89]
 | 7.7 | CCN(C(=O)Cc1ccc(S(C)(=O)=O)cc1)C1CCN(CC[C@H](NC(=O)C2CCOC(C)(C)C2)c2ccccc2)CC1 (stereo partly drawn) [Compound No. 81, (s)-N-[1-(3-phenyl-3-[2,2-dimethyltetrahydropyran-4-yl-carboxyamino]propyl)-4-piperidinyl]-N-ethyl-4-methanesulfonylphenylacetamide]
45.7 nM |  | CCN(C(=O)Cc1ccc(S(C)(=O)=O)cc1)C1CCN(CC[C@H](NC(=O)CC(C)(C)O)c2ccccc2)CC1 [compound 110]
0.437 nM |  | CCN(C(=O)Cc1ccc(S(C)(=O)=O)cc1)C1CCN(CC[C@H](NC(=O)c2ccccc2)c2cccc(F)c2)CC1 [Compound No. 103, (S)-N-{1-[3-benzoylamino-3-(3-fluorophenyl)propyl]piperidin-4-yl}-N-ethyl-2-(4-methanesulfonyl-phenyl)acetamide]
16.2 nM |  | CCN(C(=O)Cc1ccc(S(C)(=O)=O)cc1)C1CCN(CC[C@H](NC(=O)C(C)CC(F)(F)F)c2ccccc2)CC1 (stereo partly drawn) [compound 87]
33.1 nM |  | CCN(C(=O)Cc1ccc(S(C)(=O)=O)cc1)C1CCN(CC[C@H](NC(=O)c2ccc(C(F)(F)F)o2)c2ccccc2)CC1 [compound 88]
331 nM |  | CCN(C(=O)Cc1ccc(S(C)(=O)=O)cc1)C1CCN(CC[C@H](NC(=O)c2ccno2)c2ccccc2)CC1 [compound 64]
35.5 nM |  | CCN(C(=O)Cc1ccc(S(C)(=O)=O)cc1)C1CCN(CC[C@H](NC(=O)C(F)F)c2ccccc2)CC1 [Compound No. 84, (S)-N-[1-(3-phenyl-3-difluoroacetylaminopropyl)-4-piperidinyl]-N-ethyl-4-methanesulfonylphenylacetamide hydrochloride]
2.34 nM |  | CCN(C(=O)Cc1ccc(S(C)(=O)=O)cc1)C1CCN(CC[C@H](NC(=O)CCC(F)(F)F)c2ccccc2)CC1 [Compound No. 96, (S)-N-[1-(3-phenyl-3-[4,4,4-trifluorobutyrylamino]propyl)-4-piperidinyl]-N-ethyl-4-methanesulfonylphenylacetamide hydrochloride]
2 nM |  | CCN(C(=O)Cc1ccc(S(C)(=O)=O)cc1)C1CCN(CC[C@H](NC(=O)CC(F)(F)F)c2ccccc2)CC1 [Compound No. 86, (S)-N-[1-(3-phenyl-3-[3,3,3-trifluoropropionylamino]propyl)-4-piperidinyl]-N-ethyl-4-methanesulfonylphenylacetamide hydrochloride]
15.5 nM |  | CCN(C(=O)Cc1ccc(S(C)(=O)=O)cc1)C1CCN(CC[C@H](NC(=O)c2ccc[nH]2)c2ccccc2)CC1 [compound 53]
631 nM |  | CCN(C(=O)Cc1ccc(S(C)(=O)=O)cc1)C1CCN(CC[C@H](NC(=O)c2[nH]nnc2C(C)C)c2ccccc2)CC1 [compound 92]
 | 7.97 | CCN(C(=O)Cc1ccc(S(C)(=O)=O)cc1)C1CCN(CC[C@H](NC(=O)N2CCSCC2)c2ccccc2)CC1 [Compound No. 83, (S)-N-[1-(3-phenyl-3-[thiomorpholin-4-ylcarboxyamino]propyl)-4-piperidinyl]-N-ethyl-4-methanesulfonylphenylacetamide]
